This passage reports GI50 and TGI results from PubChem BioAssay (NCI).

SMILES strings stand for the structures.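 Where inhibition never reached the appropriate level, the endpoint shown equals the highest concentration tested. Otherwise, values were interpolated linearly from a five-concentration, 48-hour dose response in 96-well plates. GI50 is the concentration that inhibits growth by half. TGI: concentration producing complete growth inhibition.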 A value given as a limit tells only on which side of the number the result lay.

One assay has as its system CAKI-1 renal. The experiment in a line: NCI anticancer screen, dose series, 48 h.
`Nc1nc(SN=Nc2ccc(S(N)(=O)=O)cc2)c2[nH]cnc2n1`: the GI50 was 0.332 µM and the TGI amounted to 6.57 µM.

With `CCc1ccccc1NC(=O)c1sc2nc3c(cc2c1N)C(=O)CCC3`, the GI50 is 0.504 µM and the TGI is greater than 100 µM.

`CC(C)CNC(=O)O` returned a TGI greater than 100 µM.

On to `C[C@]12CC[C@@H]3c4ccc(O)cc4CC[C@H]3[C@@H]1CC[C@@H]2NS(=O)(=O)c1cccc(F)c1`, for which the GI50 is 3.4 µM and the TGI stood at 13.5 µM.

Consider `CCOC(=O)c1c[nH]c2oc(/C=N/N3CC(CN4CCOCC4)OC3=O)cc2c1=O` (stereo unspecified), for which the TGI is greater than 100 µM.

On to `CCC(C)(C)c1ccc(OCCCCCCN2CCNCC2)cc1`, for which the GI50 is 2.26 µM and the TGI stood at 7.09 µM.

For `N#CC(=NCCO)C1=C(O)c2ccccc2C1=O`, the TGI was greater than 100 µM.

Consider `NC(CS/C(Cl)=C/Cl)C(=O)O` (stereo unspecified), for which the GI50 is 72.5 µM and the TGI is greater than 100 µM.

For the compound `CCn1c(CO)nn(-c2cc(O[C@@H](C)C(F)(F)F)c(C(=O)Nc3c(F)cccc3Cl)cc2F)c1=O`, the GI50 was less than 0.0148 µM and the TGI was greater than 100 µM.

As to `CC1CCC(=O)C(C(=O)CC2CC(=O)NC(=O)C2)C1` (stereo unspecified), the TGI was greater than 100 µM.

With `O=C(Nc1ccc(CO)cc1)c1coc2ccccc2c1=O`, the GI50 is greater than 100 µM and the TGI was greater than 100 µM.

For the compound `CC(=O)/C=C/c1ccc(C#Cc2ccccc2)s1`, the GI50 is 19.3 µM and the TGI came out at 36.2 µM.

With `COc1cc(C2=C(c3cn(C)c4ccccc34)COC2=O)cc(OC)c1OC`, the GI50 is 0.0531 µM and the TGI was determined as 3.42 µM.

For another assay, the system named is HOP-62 NSCLC. The experiment in a line: NCI anticancer screen, dose series, 48 h.
`Nc1nc(SN=Nc2ccc(S(N)(=O)=O)cc2)c2[nH]cnc2n1`: the GI50 was 0.62 µM and the TGI is greater than 100 µM.

Consider `CCc1ccccc1NC(=O)c1sc2nc3c(cc2c1N)C(=O)CCC3`, for which the GI50 was 0.587 µM and the TGI was greater than 68.5 µM.

`CC(C)CNC(=O)O` yielded a TGI greater than 100 µM.

For the compound `C[C@]12CC[C@@H]3c4ccc(O)cc4CC[C@H]3[C@@H]1CC[C@@H]2NS(=O)(=O)c1cccc(F)c1`, the GI50 is 7.38 µM and the TGI was determined as 21.9 µM.

`CCOC(=O)c1c[nH]c2oc(/C=N/N3CC(CN4CCOCC4)OC3=O)cc2c1=O` (stereo unspecified) displayed a TGI greater than 100 µM.

`CCC(C)(C)c1ccc(OCCCCCCN2CCNCC2)cc1`: the GI50 was 2.32 µM and the TGI worked out at 6.09 µM.

Regarding `N#CC(=NCCO)C1=C(O)c2ccccc2C1=O`, the TGI was greater than 100 µM.

Consider `NC(CS/C(Cl)=C/Cl)C(=O)O` (stereo unspecified), for which the GI50 was 4.64 µM and the TGI is 29.3 µM.

As for `CCn1c(CO)nn(-c2cc(O[C@@H](C)C(F)(F)F)c(C(=O)Nc3c(F)cccc3Cl)cc2F)c1=O`, the GI50 is less than 0.0255 µM and the TGI is greater than 100 µM.

In the case of `CC1CCC(=O)C(C(=O)CC2CC(=O)NC(=O)C2)C1` (stereo unspecified), the TGI was greater than 100 µM.

For `O=C(Nc1ccc(CO)cc1)c1coc2ccccc2c1=O`, the GI50 was greater than 100 µM and the TGI was greater than 100 µM.

Regarding `CC(=O)/C=C/c1ccc(C#Cc2ccccc2)s1`, the GI50 was 19.7 µM and the TGI was determined as 33.8 µM.

As to `COc1cc(C2=C(c3cn(C)c4ccccc34)COC2=O)cc(OC)c1OC`, the GI50 was 0.123 µM and the TGI is greater than 34.8 µM.

A further assay concerns HS 578T breast. The experiment in a line: NCI anticancer screen, dose series, 48 h.
With `Nc1nc(SN=Nc2ccc(S(N)(=O)=O)cc2)c2[nH]cnc2n1`, the GI50 was 1.81 µM and the TGI is greater than 50.2 µM.

On to `CCc1ccccc1NC(=O)c1sc2nc3c(cc2c1N)C(=O)CCC3`, for which the GI50 was 0.398 µM and the TGI was greater than 100 µM.

In the case of `CC(C)CNC(=O)O`, the TGI was greater than 100 µM.

`C[C@]12CC[C@@H]3c4ccc(O)cc4CC[C@H]3[C@@H]1CC[C@@H]2NS(=O)(=O)c1cccc(F)c1`: the GI50 was 3.88 µM and the TGI came to 19.1 µM.

Regarding `CCOC(=O)c1c[nH]c2oc(/C=N/N3CC(CN4CCOCC4)OC3=O)cc2c1=O` (stereo unspecified), the TGI was greater than 100 µM.

For the compound `CCC(C)(C)c1ccc(OCCCCCCN2CCNCC2)cc1`, the GI50 was 1.97 µM and the TGI was found to be 5.17 µM.

`N#CC(=NCCO)C1=C(O)c2ccccc2C1=O` displayed a TGI greater than 100 µM.

For the compound `NC(CS/C(Cl)=C/Cl)C(=O)O` (stereo unspecified), the GI50 is 55.1 µM and the TGI was greater than 100 µM.

On to `CCn1c(CO)nn(-c2cc(O[C@@H](C)C(F)(F)F)c(C(=O)Nc3c(F)cccc3Cl)cc2F)c1=O`, for which the GI50 was greater than 22.3 µM and the TGI was greater than 100 µM.

Take `CC1CCC(=O)C(C(=O)CC2CC(=O)NC(=O)C2)C1` (stereo unspecified): the TGI is greater than 100 µM.

With `O=C(Nc1ccc(CO)cc1)c1coc2ccccc2c1=O`, the GI50 is 16.2 µM and the TGI was 78.1 µM.

`CC(=O)/C=C/c1ccc(C#Cc2ccccc2)s1`: the GI50 is 23.9 µM and the TGI stood at 56.3 µM.

As to `COc1cc(C2=C(c3cn(C)c4ccccc34)COC2=O)cc(OC)c1OC`, the GI50 is 0.159 µM and the TGI was 3.58 µM.

The test system of the next assay is KM12 colon. Put plainly: NCI anticancer screen, dose series, 48 h.
`Nc1nc(SN=Nc2ccc(S(N)(=O)=O)cc2)c2[nH]cnc2n1`: the GI50 was 1.64 µM and the TGI worked out at 20 µM.

Turning to `CCc1ccccc1NC(=O)c1sc2nc3c(cc2c1N)C(=O)CCC3`, the GI50 was 0.432 µM and the TGI was greater than 100 µM.

For the compound `CC(C)CNC(=O)O`, the TGI was greater than 100 µM.

For `C[C@]12CC[C@@H]3c4ccc(O)cc4CC[C@H]3[C@@H]1CC[C@@H]2NS(=O)(=O)c1cccc(F)c1`, the GI50 is 2.34 µM and the TGI worked out at 6.31 µM.

In turn, `CCOC(=O)c1c[nH]c2oc(/C=N/N3CC(CN4CCOCC4)OC3=O)cc2c1=O` (stereo unspecified) displayed a TGI greater than 100 µM.

For the compound `CCC(C)(C)c1ccc(OCCCCCCN2CCNCC2)cc1`, the GI50 was 1.88 µM and the TGI was 3.5 µM.

With `N#CC(=NCCO)C1=C(O)c2ccccc2C1=O`, the TGI was greater than 100 µM.

For the compound `NC(CS/C(Cl)=C/Cl)C(=O)O` (stereo unspecified), the GI50 is 67.3 µM and the TGI was greater than 100 µM.

On to `CCn1c(CO)nn(-c2cc(O[C@@H](C)C(F)(F)F)c(C(=O)Nc3c(F)cccc3Cl)cc2F)c1=O`, for which the GI50 is less than 0.01 µM and the TGI was greater than 100 µM.

The compound `CC1CCC(=O)C(C(=O)CC2CC(=O)NC(=O)C2)C1` (stereo unspecified) displayed a TGI greater than 100 µM.

For the compound `O=C(Nc1ccc(CO)cc1)c1coc2ccccc2c1=O`, the GI50 was greater than 100 µM and the TGI was greater than 100 µM.

`CC(=O)/C=C/c1ccc(C#Cc2ccccc2)s1`: the GI50 was 6.1 µM and the TGI was found to be 36.7 µM.

The test system of a further assay is MALME-3M melanoma. Put plainly: NCI anticancer screen, dose series, 48 h.
Consider `Nc1nc(SN=Nc2ccc(S(N)(=O)=O)cc2)c2[nH]cnc2n1`, for which the GI50 is 1.87 µM and the TGI is greater than 60.6 µM.

Consider `CCc1ccccc1NC(=O)c1sc2nc3c(cc2c1N)C(=O)CCC3`, for which the GI50 is 26.2 µM and the TGI is greater than 100 µM.

The compound `CC(C)CNC(=O)O` yielded a TGI greater than 100 µM.

Consider `C[C@]12CC[C@@H]3c4ccc(O)cc4CC[C@H]3[C@@H]1CC[C@@H]2NS(=O)(=O)c1cccc(F)c1`, for which the GI50 is 2.52 µM and the TGI came to 7.76 µM.

The compound `CCOC(=O)c1c[nH]c2oc(/C=N/N3CC(CN4CCOCC4)OC3=O)cc2c1=O` (stereo unspecified) gave a TGI greater than 100 µM.

In the case of `CCC(C)(C)c1ccc(OCCCCCCN2CCNCC2)cc1`, the GI50 was 1.94 µM and the TGI was found to be 3.6 µM.

In turn, `N#CC(=NCCO)C1=C(O)c2ccccc2C1=O` came in with a TGI greater than 100 µM.

For `NC(CS/C(Cl)=C/Cl)C(=O)O` (stereo unspecified), the GI50 is 62.4 µM and the TGI is greater than 100 µM.

Regarding `CCn1c(CO)nn(-c2cc(O[C@@H](C)C(F)(F)F)c(C(=O)Nc3c(F)cccc3Cl)cc2F)c1=O`, the GI50 was greater than 32.2 µM and the TGI was greater than 100 µM.

In the case of `CC1CCC(=O)C(C(=O)CC2CC(=O)NC(=O)C2)C1` (stereo unspecified), the TGI is greater than 100 µM.

Regarding `O=C(Nc1ccc(CO)cc1)c1coc2ccccc2c1=O`, the GI50 is greater than 100 µM and the TGI is greater than 100 µM.

As to `CC(=O)/C=C/c1ccc(C#Cc2ccccc2)s1`, the GI50 was 20.5 µM and the TGI is 40.7 µM.
